Measurements taken from the supplement of paper PMC10307832.

How the values were obtained:
Assay in all cases: relative viability (nuclei count vs DMSO), 5 days (fraction); higher = more cells survive
[1] = compound: C1CC2=C(C1)C=C(C=C2)OC3=NC(=C4C(=N3)N(C=N4)CC5=CC=C(C=C5)C6=CC=CC=C6)N[C@@H](CC7=CC=CC=C7)CO [QS11] + COc1cccc2cc(-c3nc([C@H]4CC[C@H](C(=O)O)CC4)n4ncnc(N)c34)[nH]c12 [OSI-027] (partner 0.5 µM)
Procedure, shortened: (§1)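 The day after seeding in 1536-well plates, lung cancer cell lines were treated by pin tool with a single drug, or with a fixed anchor-drug dose together with five library-drug doses (not always all listed) in √10 steps. After 5 days, a combined fix-and-stain solution (final 0.05% Triton X-100, 1% formaldehyde, 1 ug/ml Hoechst) was added. Nuclei counted on 4× images gave relative viability as treated counts over vehicle counts, reported as the median of duplicate plates.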

[2] = compound: C1CC2=C(C1)C=C(C=C2)OC3=NC(=C4C(=N3)N(C=N4)CC5=CC=C(C=C5)C6=CC=CC=C6)N[C@@H](CC7=CC=CC=C7)CO [QS11] + Nc1ncn([C@H]2C[C@H](O)[C@@H](CO)O2)c(=O)n1 [Decitabine] (partner 2 µM)
Procedure, shortened: as §1

[3] = compound: CC1=C(C=C(C=C1)NC(=O)C2=CC(=CC=C2)C(C)(C)C#N)NC3=CC4=C(C=C3)N=CN(C4=O)C [AZ628] + NC(=O)Nc1cc(-c2cccc(F)c2)sc1C(=O)N[C@H]1CCCNC1 [AZD7762] (partner 0.2 µM)
Procedure, shortened: as §1

[4] = compound: CC1=C(C=C(C=C1)NC(=O)C2=CC(=CC=C2)C(C)(C)C#N)NC3=CC4=C(C=C3)N=CN(C4=O)C [AZ628] + CC1(C)CCC(c2ccc(Cl)cc2)=C(CN2CCN(c3ccc(C(=O)NS(=O)(=O)c4ccc(N[C@H](CCN5CCOCC5)CSc5ccccc5)c(S(=O)(=O)C(F)(F)F)c4)cc3)CC2)C1 [Navitoclax] (partner 0.5 µM)
Procedure, shortened: as §1

Cell Line | relative viability ([1]; first compound 0.08 µM) | relative viability ([1]; first compound 0.253 µM) | relative viability ([1]; first compound 2.53 µM) | relative viability ([1]; first compound 8 µM) | relative viability ([2]; first compound 0.08 µM) | relative viability ([2]; first compound 0.253 µM) | relative viability ([2]; first compound 2.53 µM) | relative viability ([2]; first compound 8 µM) | relative viability ([3]; first compound 0.08 µM) | relative viability ([3]; first compound 0.253 µM) | relative viability ([3]; first compound 0.8 µM) | relative viability ([3]; first compound 2.53 µM) | relative viability ([3]; first compound 8 µM) | relative viability ([4]; first compound 0.08 µM) | relative viability ([4]; first compound 0.253 µM) | relative viability ([4]; first compound 0.8 µM) | relative viability ([4]; first compound 2.53 µM) | relative viability ([4]; first compound 8 µM) | relative viability ([1]; first compound 0.8 µM) | relative viability ([2]; first compound 0.8 µM)
NCI-H1915 | 0.61 | 0.617 | 0.622 | 0.591 | 0.248 | 0.266 | 0.267 | 0.287 | 0.741 | 0.782 | 0.644 | 0.558 | 0.271 | 0.764 | 0.768 | 0.79 | 0.689 | 0.584 |  | 
NCI-H1944 | 0.41 | 0.387 | 0.378 | 0.314 | 0.393 | 0.421 | 0.419 | 0.366 | 0.5 | 0.488 | 0.454 | 0.414 | 0.359 | 1.14 | 1.04 | 1 | 0.949 | 0.921 |  | 
NCI-H1975 | 0.737 | 0.674 | 0.659 | 0.805 | 0.369 | 0.358 | 0.376 | 0.358 | 0.78 | 0.624 | 0.711 | 0.779 | 0.623 | 1.09 | 1.04 | 1.02 | 1.04 | 0.654 | 0.741 | 0.397
NCI-H1993 | 0.582 | 0.674 | 0.538 | 0.5 | 0.614 | 0.621 | 0.543 | 0.573 | 0.855 | 0.546 | 0.53 | 0.556 | 0.571 | 1 | 0.872 | 0.859 | 0.688 | 0.709 | 0.547 | 0.655
NCI-H2085 | 0.724 | 0.655 | 0.724 | 0.831 | 0.478 | 0.549 | 0.56 | 0.557 | 0.997 | 0.925 | 1.04 | 1.01 | 0.566 | 1.19 | 1.12 | 1.08 | 1.04 | 0.861 | 0.886 | 0.49
NCI-H2087 | 0.523 | 0.5 | 0.532 | 0.532 | 0.287 | 0.325 | 0.305 | 0.299 | 1.04 | 1.04 | 1.03 | 1.13 | 0.298 | 0.746 | 0.676 | 0.64 | 0.669 | 0.267 |  | 0.252
NCI-H2126 | 0.685 | 0.697 | 0.653 | 0.646 | 0.588 | 0.63 | 0.574 | 0.473 | 1.08 | 0.945 | 0.775 | 1.01 | 0.984 | 0.894 | 0.886 | 0.866 | 0.794 | 0.624 | 0.727 | 0.573
NCI-H2170 | 0.691 | 0.692 | 0.8 | 0.743 | 0.487 | 0.466 | 0.43 | 0.5 | 0.882 | 0.793 | 0.832 | 1.02 | 0.743 | 0.654 | 0.636 | 0.707 | 0.748 | 0.721 | 0.703 | 0.398
